Data published in patent publication US20110076278A1 (priority 2005, published 2011).
Read-outs that look alike come from different tables or passages of the source.

Assays:
[1] = tested on: choroidal neovascularization; experiment: Choroidal neovascularization model with Alzet osmotic pump; type: in vivo; details: versus vector (vehicle) alone
cancer cell lines = experiment: Proliferation of cancer cell lines; type: cell-based
[2] = Serum concentration in the choroidal neovascularization experiment; type: in vivo; details: choroidal neovascularization model, Alzet osmotic pump
[3] = cited from earlier work; for max. plasma concentration: in vivo
HIF-1α = HIF-1α Western blot in ARPE-19 cells under hypoxia; type: cell-based, human
Description: Samples were fractionated on 3-8% Tris-Acetate gel (Invitrogen NUPAGE system) by sodium dodecyl sulfate (SDS)-polyacrylamide gel electropherosis and transferred onto nitrocellulose membrane. […] Anti-Beta-actin monoclonal antibody (Abcam, ab6276-100) was used at a 1:5000 dilution with a 30-minute incubation at room temperature.

VEGF = VEGF ELISA on supernatants of ARPE-19 cells under hypoxia; type: cell-based; details: Homo sapiens, ARPE-19, hypoxia 24 hours, read-out: IC50 VEGF expression
Description: (§1) ARPE-19 was cultured in DMEM/F-12 medium supplemented with 10% heat-inactivated FBS, penicillin (100 U/mL), and streptomycin (100 ug/mL). Cells were grown in incubator with humidified atmosphere containing 5% CO2 at 37° C. To induce hypoxia conditions, cells are placed in a Billups-Rothenberg modular incubator chamber and flushed with artificial atmosphere gas mixture (5% carbon dioxide, 1% oxygen, and balance nitrogen). The hypoxia chamber was then placed in a 37° C. incubator.
(§2) APRE-19 cells were plated in two 96-well plates at a confluence of 80% and cultured overnight. The next day, a series dilution of BNC4 (100, 50, 25, 12.5, 6.25, 3.13, 1.56, 0.78, 0 nM) was added into cultures. […] Supernatants were collected for ELISAs and cells were saved for MTS assay (MTS assay readouts was used in normalizing cell numbers). […] Affection curves (BNC4 on secretion of angiogenesis proteins) and their IC50s were generated by plotting the average normalized absorbance (450 nm minus 540nm) for each treatment on Y axis versus the corresponding BNC4 concentrations on X axis using software XLfit 4.1.
(§3) ELISAs were then performed on the APRE-19 cells treated with BNC4 and incubated under normal or hypoxia conditions as described above. […] Supernatants were collected for ELISAs and cells were saved for MTS assay (MTS assay readouts was used in normalizing cell numbers). […]

TIMP-1 = TIMP-1 ELISA on supernatants of ARPE-19 cells under hypoxia; type: cell-based; details: Homo sapiens, ARPE-19, hypoxia 24 hours, read-out: IC50 TIMP-1 expression
Description: as §1, §2, §3

angiogenin = experiment: Angiogenin ELISA on supernatants of ARPE-19 cells under hypoxia; type: cell-based; details: Homo sapiens, ARPE-19, hypoxia 24 hours, read-out: IC50 angiogenin expression
Description: as §1, §2, §3

SMILES	area of choroidal neovascularization [1]	decrease of the concentration effective for inhibiting proliferation of cancer cells by combination (cancer cell lines; combination with steroid signal modulator (Casodex)) [fold]	serum concentration [2] [ng/mL]	max. plasma concentration [3]	inhibition of hypoxia-mediated HIF-1α induction (HIF-1α; ARPE-19 cells, hypoxia, western blot (FIG. 1))	potency relative to BNC1 in inhibiting HIF-1α expression (HIF-1α; human retinal pigment epithelial cells)	IC50 (VEGF) [nM]	IC50 (TIMP-1) [nM]	IC50 (angiogenin) [nM]	decrease of the concentration effective for inhibiting proliferation of cancer cells by combination (cancer cell lines) [fold]	plasma half-life ([3]; human, according to the literature)
C[C@@H]1O[C@@H](O[C@H]2C[C@@H](O)[C@]3(CO)[C@H]4[C@H](O)C[C@]5(C)[C@@H](C6=CC(=O)OC6)CC[C@]5(O)[C@@H]4CC[C@]3(O)C2)[C@H](O)[C@H](O)[C@H]1O [BNC1, ouabain]	reduced the area of choroidal neovascularization	5	20	about 0.03 μg/mL							
C[C@@H]1O[C@@H](O[C@@H]2C=C3CC[C@@H]4[C@H](CC[C@]5(C)[C@@H](c6ccc(=O)oc6)CC[C@]45O)[C@@]3(C)CC2)[C@H](O)[C@H](O)[C@H]1O [BNC4, proscillaridin]	reduced the area of choroidal neovascularization		60	about 0.1 μg/mL	inhibit hypoxia-mediated HIF-1α induction	about 10 times	32.5	12.9	4.5	5	about 40 hours
